In article PMC4768790 (The New phytologist, 2015):

Experiments:
[1] = target: HopZ1a (Pseudomonas syringae, UniProt Q6VE93); assay: in vitro autoacetylation assay, […] autoradiography; type: biochemical; conditions: 100 nM IP6, [14C]-acetyl-CoA, 50 mM HEPES pH 8.0, 30°C, 1 h; activator
[2] = target: PopP2 (Ralstonia pseudosolanacearum, UniProt Q8Y125); conditions: labelled compound; 50 mM HEPES pH 8.0, 30°C, 1 h
Chain of PopP2 (Q8Y125 1-488): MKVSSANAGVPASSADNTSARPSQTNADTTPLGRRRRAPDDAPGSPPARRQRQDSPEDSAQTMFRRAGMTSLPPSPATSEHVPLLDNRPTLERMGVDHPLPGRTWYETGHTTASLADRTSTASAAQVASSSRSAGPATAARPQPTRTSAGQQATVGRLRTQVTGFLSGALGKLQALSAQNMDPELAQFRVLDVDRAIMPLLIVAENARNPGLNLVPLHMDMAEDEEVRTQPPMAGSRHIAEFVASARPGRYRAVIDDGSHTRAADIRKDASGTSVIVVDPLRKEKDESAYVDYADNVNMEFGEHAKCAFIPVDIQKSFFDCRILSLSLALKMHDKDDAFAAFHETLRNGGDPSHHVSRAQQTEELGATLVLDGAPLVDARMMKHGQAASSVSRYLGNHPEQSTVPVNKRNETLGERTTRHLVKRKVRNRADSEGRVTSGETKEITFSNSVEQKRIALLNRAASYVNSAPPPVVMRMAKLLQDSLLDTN

Chain of HopZ1a (Q6VE93 whole entry): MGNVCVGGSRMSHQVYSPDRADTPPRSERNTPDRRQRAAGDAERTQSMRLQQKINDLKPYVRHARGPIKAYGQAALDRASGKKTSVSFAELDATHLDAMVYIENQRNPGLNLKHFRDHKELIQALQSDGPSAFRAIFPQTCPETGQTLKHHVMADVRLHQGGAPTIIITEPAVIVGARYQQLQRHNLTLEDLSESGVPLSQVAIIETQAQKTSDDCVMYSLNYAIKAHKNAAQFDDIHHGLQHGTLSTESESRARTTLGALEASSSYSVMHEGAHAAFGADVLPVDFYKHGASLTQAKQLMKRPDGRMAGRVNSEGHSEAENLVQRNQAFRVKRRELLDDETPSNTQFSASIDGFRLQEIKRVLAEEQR

Structure (SMILES) | enhancement of autoacetylation by IP6 [1] | in vitro autoacetylation assay, 14C autoradiography [2]
O=P(O)(O)O[C@H]1[C@H](OP(=O)(O)O)[C@@H](OP(=O)(O)O)[C@H](OP(=O)(O)O)[C@@H](OP(=O)(O)O)[C@H]1OP(=O)(O)O [IP6] | c. 40 | 
CC(=O)SCCNC(=O)CCNC(=O)[C@H](O)C(C)(C)COP(=O)(O)OP(=O)(O)OC[C@H]1O[C@@H](n2cnc3c(N)ncnc32)[C@H](O)[C@@H]1OP(=O)(O)O [acetyl-CoA] |  | the mutant PopP2(S447AS449A) is no longer autoacetylated
